{
  "source": "paper PMC8674143",
  "about": "“Accuracy mechanism of eukaryotic ribosome translocation” (Nature, 2021)",
  "target": "T1, eEF2 (Saccharomyces cerevisiae, UniProt P32324)",
  "T1 construct": "gene EFT1; native full-length eEF2 purified from yeast, diphthamide at residue 699",
  "T1 sequence (P32324 whole entry)": "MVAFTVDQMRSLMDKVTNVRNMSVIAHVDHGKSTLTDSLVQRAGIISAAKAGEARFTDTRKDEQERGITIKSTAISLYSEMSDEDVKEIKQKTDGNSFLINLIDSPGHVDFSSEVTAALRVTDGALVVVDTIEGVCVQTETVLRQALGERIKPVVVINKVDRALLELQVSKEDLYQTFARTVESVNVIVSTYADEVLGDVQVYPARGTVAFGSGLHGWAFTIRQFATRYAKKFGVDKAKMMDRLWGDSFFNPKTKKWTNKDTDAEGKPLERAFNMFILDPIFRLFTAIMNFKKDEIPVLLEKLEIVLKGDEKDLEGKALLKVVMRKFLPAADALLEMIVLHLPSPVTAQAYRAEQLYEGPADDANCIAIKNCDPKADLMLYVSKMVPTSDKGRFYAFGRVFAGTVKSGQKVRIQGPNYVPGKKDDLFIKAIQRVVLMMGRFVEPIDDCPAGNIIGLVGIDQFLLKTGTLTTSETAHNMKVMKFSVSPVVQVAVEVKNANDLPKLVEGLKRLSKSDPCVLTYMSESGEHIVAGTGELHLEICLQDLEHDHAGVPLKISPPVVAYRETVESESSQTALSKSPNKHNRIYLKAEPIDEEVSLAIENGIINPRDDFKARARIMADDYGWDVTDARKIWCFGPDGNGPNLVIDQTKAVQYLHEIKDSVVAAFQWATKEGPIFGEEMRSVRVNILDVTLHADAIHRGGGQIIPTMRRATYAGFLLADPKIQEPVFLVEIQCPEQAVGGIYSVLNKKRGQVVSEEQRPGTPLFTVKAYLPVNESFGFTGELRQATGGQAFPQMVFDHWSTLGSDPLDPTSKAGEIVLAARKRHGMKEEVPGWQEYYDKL",
  "assay": "X-ray crystallography, […] Å",
  "format": "binding",
  "conditions": "on the 80S ribosome with mRNA, Phe-tRNAPhe and fMet-tRNAfMet; GTP pocket of G domain, next to sarcin-ricin loop; Mg2+; 0.25 mM ligand",
  "data": [
    {"smiles": "Nc1nc2c(ncn2[C@@H]2O[C@H](COP(=O)(O)OP(=O)(O)CP(=O)(O)O)[C@@H](O)[C@H]2O)c(=O)[nH]1", "note": "[GMPPCP]", "values": [
      {"measurement": "X-ray crystallography, 3.2 Å", "value": "native S. cerevisiae eEF2, the nonhydrolyzable GTP analogue GMPPCP, mRNA and two tRNAs"}
    ]}
  ]
}
